# Results published in patent US10071095B2, “1,2,4-triazolo [4,3-A] pyridine derivatives and their use for the treatment of neurological and psychiatric disorders” (JANSSEN PHARMACEUTICALS, INC., priority 2009, dated 2018).
# Target: T1, human mGluR2 receptor (Homo sapiens, UniProt Q14416)
# T1 construct: expressed in transfected cells; host or cells: CHO cells
# Assay: [35S]GTPγS binding assay, positive allosteric modulation (GTPγS-PAM) in presence of EC20 glutamate
# Assay type: biochemical
# Details: in presence of glutamate at EC20; average pEC50 if more experiments; ‡ means tested once
# Protocol: [^35S]GTPγS Binding Assay
# The [^35S]GTPγS binding assay is a functional membrane-based assay used to study G-protein coupled receptor (GPCR) function whereby incorporation of a non-hydrolysable form of GTP, [^35S]GTPγS (guanosine 5′-triphosphate, labelled with […] ^35S), is measured. The G-protein α subunit catalyzes the exchange of guanosine 5′-diphosphate (GDP) by guanosine triphosphate (GTP) and on activation of the GPCR by an agonist, [^35S]GTPγS, becomes incorporated and cannot be cleaved to continue the exchange cycle (Harper (1998) Current Protocols in Pharmacology 2.6.1-10, John Wiley & Sons, Inc.). […] Here we describe the use of the [^35S]GTPγS binding assay using membranes from cells transfected with the human mGluR2 receptor and adapted from Schaffhauser et al. ((2003) Molecular Pharmacology 4:798-810) for the detection of the positive allosteric modulation (PAM) properties of the compounds of this invention.
# CHO-cells were cultured to pre-confluence and stimulated with 5 mM butyrate for 24 h, prior to washing in PBS, and then collected by scraping in homogenisation buffer (50 mM Tris-HCl buffer, pH 7.4, 4° C.). Cell lysates were homogenized briefly using an ultra-turrax homogenizer. The homogenate was centrifuged at 16,000 RPM (Sorvall RC-5C plus rotor SS-34) for 10 minutes and the supernatant discarded. The pellet was resuspended in 5 mM Tris-HCl, pH 7.4 and centrifuged again (18,000 RPM, 20 min, 4° C.). The final pellet was resuspended in 50 mM Tris-HCl, pH 7.4 and stored at −80° C. in appropriate aliquots before use. Protein concentration was determined by the Bradford method (Bio-Rad, USA) with bovine serum albumin as standard.
# Measurement of mGluR2 positive allosteric modulatory activity of test compounds was performed as follows. Test compounds and glutamate were diluted in assay buffer containing 10 mM HEPES acid, 10 mM HEPES salt, pH 7.4, 100 mM NaCl, 3 mM MgCl2 and 10 μM GDP. Human mGlu2 receptor-containing membranes were thawed on ice and diluted in assay buffer supplemented with 14 μg/ml saponin. Membranes were pre-incubated with compound alone or together with a predefined (˜EC20) concentration of glutamate (PAM assay) for 30 min at 30° C. After addition of [^35S]GTPγS (f.c. 0.1 nM) microplates were shaken briefly and further incubated to allow [^35S]GTPγS incorporation on activation (30 minutes, 30° C.). Final assay mixtures contained 7 μg of membrane protein in 10 mM HEPES acid, 10 mM HEPES salt, pH 7.4, 100 mM NaCl, 3 mM MgCl2, 10 µM GDP and 10 μg/ml saponin. Total reaction volume was 200 μl. Reactions were terminated by rapid filtration through Unifilter-96 GF/B filter plates (Packard, Meriden, Conn.) using a 96-well Packard filtermate harvester. Filters were washed 6 times with ice-cold 10 mM NaH2PO4/10 mM Na2HPO4, pH 7.4. Filters were then air-dried, and 40 μl of liquid scintillation cocktail (Microscint-O) was added to each well. Membrane-bound radioactivity was counted in a Microplate Scintillation and Luminescence Counter from Packard.
# The concentration-response curves of representative compounds of the present invention-obtained in the presence of EC20 of mGluR2 agonist glutamate to determine positive allosteric modulation (PAM)—were generated using the Lexis software interface (developed at J&J).
# T1 sequence (Q14416 19-872): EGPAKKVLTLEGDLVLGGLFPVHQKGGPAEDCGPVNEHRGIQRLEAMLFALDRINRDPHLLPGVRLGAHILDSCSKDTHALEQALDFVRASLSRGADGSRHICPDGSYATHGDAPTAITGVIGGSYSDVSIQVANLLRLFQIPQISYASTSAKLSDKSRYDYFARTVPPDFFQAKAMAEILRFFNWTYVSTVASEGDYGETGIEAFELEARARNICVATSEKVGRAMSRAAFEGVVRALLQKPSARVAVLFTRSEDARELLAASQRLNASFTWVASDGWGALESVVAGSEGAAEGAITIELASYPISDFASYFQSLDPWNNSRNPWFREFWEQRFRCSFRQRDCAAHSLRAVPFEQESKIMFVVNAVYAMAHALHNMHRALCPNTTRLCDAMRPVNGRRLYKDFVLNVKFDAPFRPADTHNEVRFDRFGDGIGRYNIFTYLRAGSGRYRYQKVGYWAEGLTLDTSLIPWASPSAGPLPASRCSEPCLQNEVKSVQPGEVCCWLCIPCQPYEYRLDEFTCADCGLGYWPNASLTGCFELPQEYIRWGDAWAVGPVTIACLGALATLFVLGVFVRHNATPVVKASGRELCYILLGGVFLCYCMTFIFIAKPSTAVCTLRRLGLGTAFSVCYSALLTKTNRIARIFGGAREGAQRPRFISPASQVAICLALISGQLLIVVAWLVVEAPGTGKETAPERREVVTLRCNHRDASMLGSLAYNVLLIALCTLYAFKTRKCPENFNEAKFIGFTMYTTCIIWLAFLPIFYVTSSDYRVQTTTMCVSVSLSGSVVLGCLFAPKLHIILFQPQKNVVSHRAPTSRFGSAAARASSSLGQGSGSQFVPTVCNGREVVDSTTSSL
row,Compound,GTPγS - hR2 PAM pEC50
1,CCOCc1nnc2c(C(F)(F)F)c(N3CCC(F)(c4ccccc4)CC3)ccn12 [compound 141],6.95
2,CCCc1nnc2c(C(F)(F)F)c(N3CCC4(CC3)OC(F)(F)c3ccccc34)ccn12 [compound 142],6.55‡
3,CC(C)OCc1nnc2c(Cl)c(N3CCC(c4ccccc4)(C(F)(F)F)CC3)ccn12 [compound 144],6.25
4,Clc1c(N2CCC(c3ccccc3)CC2)ccn2c(CCC3CC3)nnc12 [compound 146],7.02
5,O=C1OC2(CCN(c3ccn4c(CC5CC5)nnc4c3Cl)CC2)c2ccccc21 [compound 149],6.5‡
6,CC(C)OCc1nnc2c(C(F)(F)F)c(N3CCC(Oc4ccccn4)CC3)ccn12 [compound 150],6.97‡
7,FC(F)(F)c1c(N2CC[C@H](Oc3ccccc3)C2)ccn2c(CC3CC3)nnc12 [compound 152],6.78
8,Cc1c(N2CCC3(CC2)OC(C)(C)c2ccccc23)ccn2c(CC3CC3)nnc12 [compound 154],7.13
9,CC(C)OCc1nnc2c(C(F)(F)F)c(N3CCN(c4ccccc4)CC3)ccn12 [compound 155],6.83‡
10,Clc1c(N2CCN(c3coc4ccccc34)CC2)ccn2c(CC3CC3)nnc12 [compound 157],6.18
11,FC(F)(F)C1(OCc2cccnc2)CCN(c2ccn3c(CC4CC4)nnc3c2Cl)CC1 [compound 158],6.14
12,Clc1c(N2CCC3(CC2)COc2cccnc23)ccn2c(CC3CC3)nnc12 [compound 161],5.68‡
13,Cc1cccnc1OC1CCN(c2ccn3c(COC(C)C)nnc3c2C(F)(F)F)CC1 [compound 162],6.93
14,FC(F)(F)C(c1ccccc1)N1CCN(c2ccn3c(CC4CC4)nnc3c2Cl)CC1 (stereo not drawn) [compound 163],6.97‡
15,Clc1c(N2CCN(C3COc4ccccc4C3)CC2)ccn2c(CC3CC3)nnc12 (stereo not drawn) [compound 164],6.46
16,Cc1cc(OC2CCN(c3ccn4c(CC5CC5)nnc4c3C(F)(F)F)CC2)ccn1 [compound 165],6.41
17,Fc1ccc(N2C[C@@H]3CN(c4ccn5c(CC6CC6)nnc5c4C(F)(F)F)C[C@@H]3C2)c(F)c1 [compound 166],7.22

row,Compound,GTPγS - hR2 PAM pEC50
1,FC(F)(F)c1c(N2CCC(Oc3cccnc3)CC2)ccn2c(CC3CC3)nnc12 [compound 167],6.47‡
2,CC1CN(c2ccn3c(CC4CC4)nnc3c2Cl)CCC1c1ccccc1 (stereo not drawn) [compound 168],7.22
3,CC1CN(c2ccn3c(CC4CC4)nnc3c2C(F)(F)F)CCC1c1ccccc1 (stereo not drawn) [compound 169],7.77‡
4,Clc1c(N2CCC(Oc3cccnc3)CC2)ccn2c(CC3CC3)nnc12 [compound 170],5.84‡
5,Clc1c(N2CCC(c3ccccc3)C2)ccn2c(CC3CC3)nnc12 (stereo not drawn) [compound 173],6.32‡
6,FC(F)(F)c1c(N2CCC(c3ccccc3)C2)ccn2c(CC3CC3)nnc12 (stereo not drawn) [compound 174],5.91‡
7,FC(F)(F)c1c(N2CCC(Nc3ccccc3)CC2)ccn2c(CC3CC3)nnc12 [compound 175],6.33
8,Fc1ccccc1NC1CCN(c2ccn3c(CC4CC4)nnc3c2Cl)CC1 [compound 176],6.3
9,CC(C)(C)Cc1nnc2c(C(F)(F)F)c(N3CCC(c4ccccc4)CC3)ccn12 [compound 177],7.67
10,Fc1cc(F)cc(CN2CCN(c3ccn4c(CC5CC5)nnc4c3Cl)CC2)c1 [compound 179],5.79‡
11,Fc1ccccc1NC1CCN(c2ccn3c(CC4CC4)nnc3c2C(F)(F)F)CC1 [compound 183],7.08
12,FC(F)(F)c1c(N2CCC(c3ccccc3)CC2)ccn2c(CC3CCC3)nnc12 [compound 185],8.26
13,Fc1ccc(N2C[C@@H]3CN(c4ccn5c(CC6CC6)nnc5c4Cl)C[C@@H]3C2)c(F)c1 [compound 186],7.27
14,Cc1c(N2CCC(c3ccccc3)(C(F)(F)F)CC2)ccn2c(CC3CC3)nnc12 [compound 187],6.19
15,Fc1ccc(N2CCCC3(C2)CN(c2ccn4c(CC5CC5)nnc4c2C(F)(F)F)C3)c(F)c1 [compound 188],8‡
16,Fc1ccccc1NC1CN(c2ccn3c(CC4CC4)nnc3c2C(F)(F)F)C1 [compound 189],6.4

# The next lines start with the values.
row,GTPγS - hR2 PAM pEC50,Compound
1,6.5,Fc1ccccc1NC1CN(c2ccn3c(CC4CC4)nnc3c2Cl)C1 [compound 190]
2,6.76,C[C@H]1CN(c2ccn3c(CC(F)(F)F)nnc3c2Cl)CCN1c1cc(F)cc(F)c1 [compound 191]
3,6.63,C[C@@H]1CN(c2ccn3c(CC(F)(F)F)nnc3c2Cl)CCN1c1cc(F)cc(F)c1 [compound 192]
4,8.26,CC1(c2ccccc2F)CCN(c2ccn3c(CC4CC4)nnc3c2C(F)(F)F)CC1 [compound 193]
5,7.69,CC1(c2ccc(F)cc2)CCN(c2ccn3c(CC4CC4)nnc3c2C(F)(F)F)CC1 [compound 194]
6,7.98,Fc1ccc(C2CCN(c3ccn4c(CC5CC5)nnc4c3C(F)(F)F)CC2)c(F)c1 [compound 195]
7,7.06,Fc1ccc(N2CCN(c3ccn4c(CC5CC5)nnc4c3C(F)(F)F)CC2)c(F)c1 [compound 196]
8,7.82‡,CC1(c2cccc(F)c2)CCN(c2ccn3c(CC4CC4)nnc3c2C(F)(F)F)CC1 [compound 197]
9,6.29‡,FC(F)(F)c1c(N2CCC(c3cccnc3)CC2)ccn2c(CC3CC3)nnc12 [compound 198]
10,6.8,Cc1cc(C2CCN(c3ccn4c(CC5CC5)nnc4c3C(F)(F)F)CC2)ccn1 [compound 199]
11,6.9,Fc1ccc(N2CC3(CCN(c4ccn5c(CC6CC6)nnc5c4C(F)(F)F)CC3)C2)c(F)c1 [compound 201]
12,7.86‡,Fc1ccc(N2CCC3(CCN(c4ccn5c(CC6CC6)nnc5c4C(F)(F)F)CC3)C2)c(F)c1 [compound 202]
13,6.73,Fc1ccc(NC2CCN(c3ccn4c(CC5CC5)nnc4c3C(F)(F)F)CC2)c(F)c1 [compound 203]
14,6.61‡,N#Cc1c(N2CCC(c3ccccc3)CC2)ccn2c(-c3ccccc3)nnc12 [compound 205]
15,6.5,Fc1ccc(N2CC3(CCN(c4ccn5c(CC6CC6)nnc5c4Cl)CC3)C2)c(F)c1 [compound 210]
16,6.03‡,O=C1N(c2ccc(F)cc2F)CC12CCN(c1ccn3c(CC4CC4)nnc3c1Cl)CC2 [compound 213]
17,5.6‡,Fc1ccc(CN2CCN(c3ccn4c(CC5CC5)nnc4c3Cl)CC2)c(F)c1 [compound 215]
18,6.68,FC(F)(F)c1c(N2CCN(CCc3ccccc3)CC2)ccn2c(CC3CC3)nnc12 [compound 216]
19,6.05‡,FC(F)(F)c1cccc(CN2CCN(c3ccn4c(CC5CC5)nnc4c3Cl)CC2)c1 [compound 218]

# Same assay, conditions: in presence of glutamate at EC20; average pEC50 if more experiments; ‡ means tested once; read-out: GTPγS - hR2 PAM pEC50 (converted)
row,EC50 [nM],Compound
1,245,"FC(F)(F)c1c(N2CCC3(CC2)OC(F)(F)c2ccccc23)ccn2c(CC3CC3)nnc12 [compound 147, 1′-[3-cyclopropylmethyl-8-(trifluoromethyl)[1,2,4]triazolo[4,3-a]pyridin-7-yl]-3,3-difluoro-3H-spiro[benzo[c]furan-1,4′-piperidine]]"
2,3.55,"CC1(C)OC2(CCN(c3ccn4c(CC5CC5)nnc4c3C(F)(F)F)CC2)c2ccc(F)cc21 [compound 200, 1′-[3-(Cyclopropylmethyl)-8-(trifluoromethyl)-1,2,4-triazolo[4,3-a]pyridin-7-yl]-5-fluoro-3,3-dimethyl-spiro[isobenzofuran-1(3H),4′-piperidine]]"
